Reference: article PMC4418665, “Cyclization of the Urokinase Receptor-Derived Ser-Arg-Ser-Arg-Tyr Peptide Generates a Potent Inhibitor of Trans-Endothelial Migration of Monocytes” (PLoS ONE, 2015)
Peptide text beside a SMILES is read from it.

Target: T1, FPR1 (Homo sapiens, UniProt P21462)
T1 sequence (P21462 1-350): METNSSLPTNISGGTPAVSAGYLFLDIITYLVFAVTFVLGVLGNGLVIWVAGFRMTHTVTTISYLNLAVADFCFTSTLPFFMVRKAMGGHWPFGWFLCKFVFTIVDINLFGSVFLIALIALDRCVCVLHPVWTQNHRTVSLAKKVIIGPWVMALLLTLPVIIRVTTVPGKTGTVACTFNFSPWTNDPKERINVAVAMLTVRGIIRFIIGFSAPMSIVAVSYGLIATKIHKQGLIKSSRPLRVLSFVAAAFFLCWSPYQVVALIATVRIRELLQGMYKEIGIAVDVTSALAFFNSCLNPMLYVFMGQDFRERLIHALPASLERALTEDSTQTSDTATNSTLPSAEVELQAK
Experiment: Agonist-induced FPR1 internalization at 37°C, fluorescence microscopy, THP-1 cells
Type: cell-based
Design: host or cells: THP-1 human monocytic leukemia cells
Conditions: excess (100 nM) unlabelled peptide 30 min at 37°C, then 10 nM FITC-fMLF 30 min at 37°C
Procedure: Once documented that both SRSRY and [SRSRY] peptides compete with fMLF for binding to FPR1, we investigated the effect of [SRSRY] on the motility of monocytes. Preliminarily, we assessed whether [SRSRY] is a ligand of FPR1 on monocyte cell surface. […] (Fig 3A). When binding experiments were performed at 37°C, FPR1 appeared mainly localized within the cytoplasm, adjacent but outside the nucleus of THP-1 cells.
Fig 3 The peptide [SRSRY] binds to FPR1 on THP-1 cell surface. A. THP-1 cells (1.5 x10^6 cells/sample) were pre-incubated with diluents (None), 100 nM fMLF, 100 nM SRSRY or 100 nM [SRSRY] peptides for 60 minutes at 4°C, then exposed to 10 nM N-formyl-Nle-Leu-Phe-Nle-Tyr-Lys-fluorescein (FITC-fMLF) for additional 60 minutes at 4°C. Fluorimetric measurement of cell-associated fluorescence was assed using 485 nm excitation and 535 nm emission filters. Data are expressed as a percentage of the fluorescence associated to THP-1 cells exposed to FITC-fMLF alone (None = 100%) and represent a mean ± SD from triplicates. *Statistical significance (t-test) against None with p<0.001. B. THP-1 cells incubated with diluents (None), 100 nM fMLF, 100 nM SRSRY or 100 nM [SRSRY] peptides for 30 minutes at 37°C and exposed to 10 nM FITC-fMLF for additional 30 minutes at 37°C. Scale bar: 5 μm. Original magnifications: 630x. […]

## N=C(N)NCCC[C@@H]1NC(=O)[C@H](CO)NC(=O)[C@H](Cc2ccc(O)cc2)NC(=O)[C@H](CCCNC(=N)N)NC(=O)[C@H](CO)NC1=O [[SRSRY], [Ser-Arg-Ser-Arg-Tyr]] (cyclo(RSRYS))
  internalization of fluorescent agonist in THP-1 cells: dramatically reduced
